Assay results taken from patent US20230173071A1, “TREATMENT OF MYOPIA AND OTHER OCULAR CONDITIONS USING SINGLET OXYGEN GENERATED FROM DYES ACTIVATED BY NEAR-INFRARED LIGHT” (California Institute of Technology, priority 2018, published 2023).

Assays:
[1] = system: sclera of enucleated young rabbit eyes; test: Eye expansion test - whole eye treatment, scleral area analysis; settings: for reduction in expansion, treated vs untreated: ICG with sodium iodide (NaI) additive in D2O; for reduction in expansion, fully treated eyes vs NIR light only treated eyes: ICG/NaI/D2O with NIR light
Procedure: Enucleated young rabbit eyes were provided from collaborators at University of California, San Francisco (UCSF). These were shipped overnight and used within 1-4 days. Upon arrival, they were stored in Dulbecco's buffer in a 4° C. refrigerator until use. They were trimmed of fat and muscle to provide a smooth surface for easy identification of changes to the size. All irradiations used an 810 nm LED (Thor) set to a power of ˜200 mW.
Untreated eyes received no further modification and were stored in Dulbecco's buffer in the refrigerator until use. Eyes to be treated had their epithelial layer on the cornea removed. An ethanol-soaked Kim wipe was applied to the cornea for two minutes and then a scalpel blade was used to scrape the layer off. Removal was confirmed using a fluorescein strip and long UV light. […] The eye was placed cornea up on a damp (D2O) gauze pad and then placed on a 10 mL beaker. The LED was placed above the eye to irradiate down for 10 minutes with 5-15 drops of either the soaking solution or D2O being applied every 2 minutes to keep the sample hydrated. Once completed, the irradiation process was repeated for the reverse side of the eye (by the retina), then the eye on its side (half cornea & sclera), and finally on the reverse side of the sideways eye. This was a total of four 10 minute irradiations aimed to treat the whole eye.
The eye expansion setup followed the protocol outlined below. The eyes were placed on a stand and 30 gauge needle was inserted from underneath. The chamber was filled with Dulbecco's buffer and two different antibiotics mixtures—an ophthalmic solution of Trimethoprim Sulfate and Polymyxin B Sulfate and an ophthalmic ointment of Neomycin and Polmyxin B Sulfates and Bacitracin Zinc. A low pressure (˜22 mm Hg) was applied for one hour to equilibrate the eyes prior to applying a higher pressure (˜85 mm Hg) for the experiment. This is done by raising an IV bag to a predetermined height above the eye chamber. The higher pressure was applied from 12-36 hours (or until rupture) depending on the experiment. Two photos were taken every 15 minutes during both the low and high-pressure applications. […]
Image J was used to calculate the scleral area for comparison. […] Measured scleral areas where then converted to percent change from the initial time point (when the higher pressure was first applied). These values were averaged and standard errors calculated for comparison.
To evaluate the ability of ICG to crosslink the sclera, a similar set of eye expansion tests was performed. […] To quantify this observation, the area of the sclera was calculated using Image J for the initial and 12-hour time points (FIGS. 7(A-B)). Expansion from the initial time point was calculated and compared as a percent.

[2] = Singlet oxygen sensor green (SOSG) fluorescence measurements; type: physicochemical; settings: for SOSG fluorescence emission at 525 nm: dye 0.1 mg/mL, 810 nm, 200 mW, 488 nm excitation
Procedure: Singlet oxygen sensor green (SOSG) is a common reagent for measuring singlet oxygen generation in aqueous systems. The marker becomes more fluorescent as singlet oxygen is generated. All time measurements were done in triplicate (100 μL aliquots from an irradiated sample). A Molecular Devices Flexstation was used to read out the fluorescence measurements with the excitation/emission at 488/525 nm.
SOSG fluorescence turn on was initially measured using riboflavin as a point of comparison for the efficacy of ICG irradiations. Measurements used a dye concentration of 0.1 mg/mL and the irradiation the parameters (3 mW at 365 nm) used in the FDA approved procedure for keratoconus (corneal expansion). The mixture was stirred during irradiation.
Stocks of the ICG formulations (both H2O and D2O) were made to be 1 mg/mL ICG and 0.01% benzalkonium chloride (BAC). These were diluted to a dye concentration of 0.1 mg/mL for the SOSG tests with no adjustments for the BAC. The sample was irradiated with 810 nm light at 200 mW and stirred throughout the irradiation.

[3] = Dye solubility observations; type: physicochemical
Procedure: ICG is a NIR-absorbing heptamethine dye that has the potential of generating singlet oxygen upon irradiation and has a λmax ranging from 780-810 nm depending on the context. […] BAC along with other cationic surfactants (alkyl ammonium salts, polyoxyethylene alkyl amines, amide linked alkyl amines, alkyl imidazolines, etc.) aid in the solubility of the dye in aqueous media. […] The standard formulation used in these studies consisted of 0.05 to 5.0 mg/mL ICG and 0.01% to 0.001% BAC in solution. D2O was selected as the solvent to increase the lifetime of singlet oxygen and therefore the crosslinking capability of the species. […] Fluorinated solvents (perfluorohexane, perfluorotripentylamine, etc.) are also of interest due to their ability to dissolve more oxygen and their robust inertness.

Compound: CC1(C)C(/C=C/C=C/C=C/C=C2\N(CCCCS(=O)(=O)O)c3ccc4ccccc4c3C2(C)C)=[N+](CCCCS(=O)(=O)[O-])c2ccc3ccccc3c21 [ICG, indocyanine green]
- reduction in expansion, treated vs untreated ([1]; 12 hour time point): ~62%
- reduction in expansion, treated vs untreated ([1]; 24 hour time point): 70%
- reduction in expansion, fully treated eyes vs NIR light only treated eyes ([1]; 12 hour time point): ~69%
- reduction in expansion, fully treated eyes vs NIR light only treated eyes ([1]; 24 hour time point): ~72%
- SOSG fluorescence emission at 525 nm ([2]; D2O): large increase in fluorescence activation
- SOSG fluorescence emission at 525 nm ([2]; H2O): increase
- singlet oxygen generation (SOSG turn-on) relative to riboflavin ([2]; only in the presence of D2O): efficient enough to compete with the turn-on observed in the presence of riboflavin
- solubility in aqueous media ([3]; BAC compared with sodium iodide): greater increases in solubility
- solubility in aqueous media ([3]; with BAC and other cationic surfactant additives): enhanced solubility
